Test results: US7396817B2, “Biologically active peptides comprising Isoleucyl-valyl-threonyl-asparaginyl-threonyl-threonine (IVTNTT)” (CMS Peptides Patent Holding Company Limited, priority 2003, dated 2008)
Marks after values point to notes of the source that are not given here. No end group written: not given here.

Key:
HBeAg = details: at 400 μg/ml, day 8, 2.2.15 cell supernatant
Method: (§1) a. Inhibitory effect of CMS017 on HBsAg and HBeAg at maximum non-toxic concentration in vitro 2.2.15 cells, growing at logarithmic phase, were harvested and re-suspended in MEM culture medium (containing 10% calf serum, […], and 100 U/ml streptomycin) as a 2×10^6/ml cell suspension. The suspension was inoculated into a 24-well cell culture plate with 1.5 ml per well, and incubated at 37° C., 5% CO2 for 48 hours. The test substance CMS017 was diluted and added to the 2.2.15 cultures to final concentrations of 0, 50, 100, 200, 400, 800 μg/ml, with 3 parallel samples per concentration. The cells were then incubated at 37° C., 5% CO2. The supernatant was refreshed on days 3 and 6. The cytotoxicity of CMS017 on 2.2.15 cell cultures was then observed with MTT staining on day 8, and the maximum non-toxic concentration of CMS017 was determined.
(§2) The preparation and incubation of cell suspensions were repeated as above with the determined maximum non-toxic concentration of CMS017, and with parallel negative and positive controls (lamivudine with the same concentration as CMS017 was used as the positive control). On the 8th day, the titers of HBsAg and HBeAg in the cell culture supernatants were determined by ELISA^[1,2], using conditions described by the kit supplier. The inhibition percentage of each test substance was calculated as shown below. Inhibitory percentage (%)=(blank control−sample)/blank control×100 Cell survival percentage (%)=sample (A595−A650)/blank control (A595−A650)×100

HBsAg = details: at 400 μg/ml, day 8, 2.2.15 cell supernatant
Method: as §1, §2

hepG 2 2.2.15 cell line = experiment: Cytotoxicity of CMS017 on 2.2.15 cell cultures, MTT staining (maximum non-toxic concentration); assay type: cell-based; details: 2.2.15 cells, MTT staining on day 8
Method: as §1

[1] = system: T lymphocyte transformation; experiment: ConA-induced T lymphocyte transformation of spleen cells from treated mice (MTT); assay type: in vivo, BALB/c mice; details: for stimulation index (X ± SD): BALB/c mice, spleen cells + ConA
Method: The day after the last test substance administration, the mice were sacrificed by cervical dislocation. The spleen was isolated aseptically and manually dispersed in cold D-Hank's solution using an injection needle. The dispersed cell suspension was further sieved through a 100 gauge 150 μm diameter stainless steel sieve. After centrifugation at 200 g for 10 minutes, the supernatant was discarded. […] The suspended cells were collected by centrifugation at 150 g for 10 minutes. […] The cells were then pelleted by centrifugation at 150 g for 10 minutes. […] The incubation was continued for 4 hours.

HBV-DNA = experiment: Inhibition of supernatant HBV-DNA in 2.2.15 cells (fluorescent quantitative PCR); details: for IC50 (HBV-DNA): 2.2.15 cell supernatant; for IC50 (HBV-DNA) / inhibitory percentage for supernatant HBV-DNA: day 8; for inhibitory percentage for supernatant HBV-DNA: at the concentration of 160 μg/ml
Method: (§3) Cell suspensions were prepared and incubated as described in Method 1 above. […] The culture media, with added test substance, were exchanged on days 3 and 6. On the 8th day, the supernatants of the cell cultures were harvested for the determination of HBV-DNA concentrations by fluorescent quantitative PCR^[3,4], using the method described by the kit supplier. The cultured cells were taken for analysis of the cytotoxicity of each test substance. The inhibitory percentage of the drug was calculated in the following manner: Inhibitory percentage (%)=(blank control−sample)/blank control×100 Cell survival percentage (%)=sample (A595−A650)/blank control (A595−A650)×100
(§4) TC50 was defined as the test substance concentration at which the percentage of surviving cells in the test group is 50% of that of the control group. IC50 was the test substance concentration at which the percentage of reduction of HBV-DNA concentration is 50% compared to control. These were determined by plotting the corresponding percentage against the test substance concentrations. The selection index (SI) was calculated as TC50/IC50. The bigger the value of SI, the higher the inhibition activity of test substance is and the less cytotoxic it is.

[2] = Cytotoxicity (cell survival, TC50) in the HBV-DNA experiment; assay type: cell-based; details: human, HepG2 2.2.15 cells, day 8, concentration at which cell survival is 50% of control
Method: as §3, §4

| Molecule | Inhibition ratio of HBeAg (HBeAg) [%*] | Inhibition ratio of HBsAg (HBsAg) [%*] | maximum non-toxic concentration (hepG 2 2.2.15 cell line) [µg/mL] | stimulation index (X ± SD) ([1]; 50 μg/kg/day i.p. for 28 days) | effect on T lymphocyte transformation (in words) ([1]; 50 μg/kg/day, compared with the saline control group (P<0.05)) | stimulation index (X ± SD) ([1]; 200 μg/kg/day i.p. for 28 days) | IC50 (HBV-DNA) (HBV-DNA) [µg/mL] | SI (selection index, TC50/IC50) (HBV-DNA) | inhibitory percentage for supernatant HBV-DNA (HBV-DNA) | CC50 at 192 h [2] [µg/mL] |
| --- | --- | --- | --- | --- | --- | --- | --- | --- | --- | --- |
| Nc1ccn([C@@H]2CS[C@H](CO)O2)c(=O)n1 [Lamivudine, lamivudine, reference compound] | 35.4 | 29.6 | – | – | – | – | – | – | – | – |
| IVTNTT [CMS017, L-Isoleucyl-L-valyl-L-threonyl-L-asparaginyl-L-threonyl-L-threonine] | 62.2 | 68.6 | 400 | 2.82 ± 0.41 | enhance T lymphocyte transformation | 2.65 ± 0.51 | 2.3 | 577.7 | 90.8% | 1330 |
| vidarabine monophosphate [Ara-AMP, reference compound] | – | – | – | – | – | – | 11.4 | 5.6 | 89.1%* | – |
